Reference: patent US20160257697A1, “THIOPHENE-SUBSTITUTED TETRACYCLIC COMPOUNDS AND METHODS OFUSE THEREOF FOR THE TREATMENT OF VIRAL DISEASES” (priority 2013, published 2016)
Where two headings read alike, the source gives them in different places.

Key:
Experiment in all cases: microbe, parasite or virus in culture
Assay type in all cases: cell-based, Hepatitis C virus (HCV)
Conditions in all cases: Replicon Assay A
HCV replicon 1AY93H = test system: HCV replicon 1AY93H
Procedure, shortened: (§1)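 Compound is added to replicon cells plated at 2000 cells/well (0.5% DMSO, 5% FBS). After 3 days the cells are washed and lysed, and HCV RNA and cyclophilin mRNA are quantified by multiplex RT-PCR against a standard curve of known replicon total RNA.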

HCV replicon 1A = test system: HCV replicon 1A
Procedure, shortened: as §1

HCV replicon 2B = test system: HCV replicon 2B
Procedure, shortened: as §1

[1] = read-out: 1A Y93H IC50, HCV replicon 1A Y93H
[2] = read-out: 2B IC50, HCV replicon 2B
[3] = read-out: 1A Y93H IC50, replicon 1AY93H
[4] = Hepatitis C virus, read-out: 1A Y93H IC50 (nM), replicon 1AY93H
[5] = Hepatitis C virus, read-out: 2B IC50 (nM), replicon 2B
[6] = Hepatitis C virus, HCV replicon 1A
[7] = Hepatitis C virus, read-out: 1A Y93H IC50, HCV replicon 1A Y93H

Structure (SMILES) | IC50 (HCV replicon 1AY93H; [3]) [nM] | IC50 (HCV replicon 1A; Hepatitis C virus, replicon 1A) [nM] | IC50 (HCV replicon 2B; read-out: 2B IC50, replicon 2B) [nM] | IC50 (HCV replicon 1A; replicon 1A) [nM] | other results
COC(=O)N[C@H](C(=O)N1CCC[C@H]1c1ncc(-c2cc(F)c3c(c2)OC(c2ccc(C(F)(F)F)s2)n2c-3cc3cc(-c4cnc([C@@H]5CCCN5C(=O)[C@@H](NC(=O)OC)C5CCOCC5)[nH]4)ccc32)[nH]1)C(C)C (single isomer, unassigned) [Compound 655] |  |  |  |  | IC50 (HCV replicon 1AY93H; [1]): 0.278 nM; IC50 (HCV replicon 1A; HCV replicon 1A): 0.0016 nM; IC50 (HCV replicon 2B; [2]): 0.24 nM
COC(=O)N[C@H](C(=O)N1CCC[C@H]1c1ncc(-c2cc(C)c3c(c2)OC(c2cc(C)c(C)s2)n2c-3cc3cc(-c4cnc([C@@H]5CCCN5C(=O)[C@@H](NC(=O)OC)C(C)C)[nH]4)ccc32)[nH]1)C(C)C (single isomer, unassigned) [Compound 15] | 18.1 | 0.0029 | 2.28 |  | 
CC[C@@H]1CC(C(NC(=O)OC)C(=O)N2CCC[C@H]2c2ncc(-c3ccc4c(c3)cc3n4C(c4ccc(C5CC5)s4)Oc4cc(-c5cnc([C@@H]6CCCN6C(=O)[C@@H](NC(=O)OC)C(C)C)[nH]5)cc(F)c4-3)[nH]2)C[C@H](CC)O1 (single isomer, unassigned) [Compound 290] | 0.19 |  | 0.34 | 0.0011 | 
CCc1ccc(C2Oc3cc(-c4cnc([C@@H]5CCCN5C(=O)C(NC(=O)OC)C5C[C@@H](C)O[C@@H](C)C5)[nH]4)cc(F)c3-c3cc4cc(-c5cnc([C@@H]6CCCN6C(=O)[C@@H](NC(=O)OC)C(C)C)[nH]5)ccc4n32)s1 (single isomer, unassigned) [Compound 157] | 2.32 |  | 2.8 | 0.0021 | 
COCCc1ccc(C2Oc3cc(-c4cnc([C@@H]5CCCN5C(=O)[C@@H](NC(=O)OC)C(C)C)[nH]4)cc(F)c3-c3cc4cc(-c5cnc([C@@H]6CCCN6C(=O)[C@@H](NC(=O)OC)C(C)C)[nH]5)ccc4n32)s1 (single isomer, unassigned) [Compound 81] |  | 0.0014 |  |  | IC50 (HCV replicon 1AY93H; [4]): 0.41 nM; IC50 (HCV replicon 2B; [5]): 1.32 nM
CCc1ccc(C2Oc3cc(-c4cnc([C@@H]5CCCN5C(=O)[C@@H](NC(=O)OC)C(C)C)[nH]4)ccc3-c3c(F)c4cc(-c5cnc([C@@H]6CCCN6C(=O)C(NC(=O)OC)C6C[C@@H](C)O[C@@H](C)C6)[nH]5)ccc4n32)s1 (single isomer, unassigned) [Compound 633] |  |  |  |  | IC50 (HCV replicon 1AY93H; [1]): 0.306 nM; IC50 (HCV replicon 1A; [6]): 0.0013 nM; IC50 (HCV replicon 2B; [2]): 0.311 nM
COC(=O)NC(C(=O)N1[C@@H]2C[C@@H]2C[C@H]1c1ncc(-c2ccc3c(c2)c(F)c2n3C(c3ccc(C4CC4)s3)Oc3cc(-c4cnc([C@@H]5CCCN5C(=O)[C@@H](NC(=O)OC)C(C)C)[nH]4)cc(F)c3-2)[nH]1)C1CCOC(C)(C)C1 (single isomer, unassigned) [Compound 423] |  |  |  |  | IC50 (HCV replicon 1AY93H; [1]): 0.0042 nM; IC50 (HCV replicon 1A; HCV replicon 1A): 0.0021 nM; IC50 (HCV replicon 2B; [2]): 0.0096 nM
CCc1ccc(C2Oc3cc(-c4cnc(C5CCCN5C(=O)C(NC(=O)OC)C5C[C@@H](C)O[C@@H](C)C5)[nH]4)ccc3-c3cc4c(F)c(-c5cnc([C@@H]6CCCN6C(=O)[C@@H](NC(=O)OC)C(C)C)[nH]5)ccc4n32)s1 (single isomer, unassigned) [Compound 358] | 2.62 | 0.0047 | 2.49 |  | 
COC(=O)N[C@H](C(=O)N1CCC[C@H]1c1ncc(-c2cc(F)c3c(c2)OC(c2cc4nccnc4s2)n2c-3cc3cc(-c4cnc([C@@H]5CCCN5C(=O)[C@@H](NC(=O)OC)C(C)C)[nH]4)ccc32)[nH]1)C(C)C (single isomer, unassigned) [Compound 47] | 1.54 | 0.0016 | 0.77 |  | 
COC(=O)N[C@H](C(=O)N1CCC[C@H]1c1ncc(-c2cc(F)c3c(c2)OC(c2cc(C)c(C(C)C)s2)n2c-3cc3cc(-c4cnc([C@@H]5CCCN5C(=O)[C@@H](NC(=O)OC)C(C)C)[nH]4)ccc32)[nH]1)C(C)C (mixture of isomers) [Compound 64] |  | 0.004 |  |  | IC50 (HCV replicon 1AY93H; [4]): 0.15 nM; IC50 (HCV replicon 2B; [5]): 4.01 nM
CCc1ccc(C2Oc3cc(-c4cnc([C@@H]5CCCN5C(=O)[C@@H](NC(=O)OC)C(C)C)[nH]4)cc(F)c3-c3cc4cc(-c5cnc([C@@H]6CCCN6C(=O)C(NC(=O)OC)C6CCOC(C)(C)C6)[nH]5)ccc4n32)s1 (single isomer, unassigned) [Compound 148] | 10.2 |  | 13.2 | 0.0919 | 
CCc1ccc(C2Oc3cc(-c4cnc([C@@H]5CCCN5C(=O)[C@@H](NC(=O)OC)C(C)C)[nH]4)cc(F)c3-c3cc4cc(-c5cnc([C@@H]6C[C@H]7C[C@H]7N6C(=O)C(NC(=O)OC)C6CCOC(C)(C)C6)[nH]5)ccc4n32)s1 (single isomer, unassigned) [Compound 203] | 0.12 |  | 0.83 | 0.0016 | 
COC(=O)N[C@H](C(=O)N1CCC[C@H]1c1ncc(-c2ccc3c(c2)OC(c2ccc(C4CC4)s2)n2c-3cc3cc(-c4cnc([C@@H]5CCCN5C(=O)[C@@H](NC(=O)OC)C(C)C)[nH]4)ccc32)[nH]1)C(C)C (single isomer, unassigned) [Compound 703] |  |  |  |  | IC50 (HCV replicon 1AY93H; [7]): 0.26 nM; IC50 (HCV replicon 1A; HCV replicon 1A): 0.03 nM; IC50 (HCV replicon 2B; [2]): 0.12 nM
COC(=O)N[C@H](C(=O)N1CCC[C@H]1c1ncc(-c2cc(F)c3c(c2)OC(c2ccc(C(C)CF)s2)n2c-3cc3cc(-c4cnc([C@@H]5CCCN5C(=O)[C@@H](NC(=O)OC)C(C)C)[nH]4)ccc32)[nH]1)C(C)C (single isomer, unassigned) [Compound 332] |  | 0.0011 | 1.39 |  | IC50 (HCV replicon 1AY93H; [4]): 0.765 nM
COC(=O)NC(C(=O)N1[C@@H]2C[C@@H]2C[C@H]1c1ncc(-c2ccc3c(c2)cc2n3C(c3ccc(C4CC4)s3)Oc3cc(-c4cnc([C@@H]5CCCN5C(=O)[C@@H](NC(=O)OC)C(C)C)[nH]4)cc(F)c3-2)[nH]1)C1CCOC(C)(C)C1 (single isomer, unassigned) [Compound 278] | 0.161 |  | 0.3 | 0.0018 | 
COC(=O)N[C@H](C(=O)N1CCC[C@H]1c1nc(-c2ccc3c(c2)OC(c2ccc(Cl)s2)n2c-3cc3cc(-c4c[nH]c([C@@H]5CCCN5C(=O)[C@@H](NC(=O)OC)C5CCOCC5)n4)ccc32)c[nH]1)C1CCOCC1 (mixture of isomers) [Compound 727] |  |  |  |  | IC50 (HCV replicon 1AY93H; [7]): 0.056 nM; IC50 (HCV replicon 1A; [6]): 0.024 nM; IC50 (HCV replicon 2B; Hepatitis C virus, read-out: 2B IC50, HCV replicon 2B): 0.027 nM
COCc1ccc(C2Oc3cc(-c4cnc([C@@H]5CCCN5C(=O)[C@@H](NC(=O)OC)C(C)C)[nH]4)cc(F)c3-c3cc4cc(-c5c[nH]c([C@@H]6CCCN6C(=O)[C@@H](NC(=O)OC)C(C)C)n5)ccc4n32)s1 (single isomer, unassigned) [Compound 511] |  |  |  |  | IC50 (HCV replicon 1AY93H; [1]): 0.401 nM; IC50 (HCV replicon 1A; [6]): 0.00238 nM; IC50 (HCV replicon 2B; [2]): 1.83 nM
COC(=O)NC(C(=O)N1CCC[C@H]1c1ncc(-c2ccc3c(c2)cc2n3C(c3ccc(C4CC4)s3)Oc3cc(-c4cnc([C@@H]5CCCN5C(=O)[C@@H](NC(=O)OC)C(C)C)[nH]4)cc(F)c3-2)[nH]1)C(C)(C)F (single isomer, unassigned) [Compound 76] | 2.55 |  | 13.7 | 0.0159 | 
CCc1ccc(C2Oc3cc(-c4cnc([C@@H]5CCCN5C(=O)C(NC(=O)OC)C5C[C@@H](C)O[C@@H](C)C5)[nH]4)cc(F)c3-c3cc4cc(-c5cnc([C@@H]6CCCN6C(=O)C(NC(=O)OC)C6C[C@@H](C)O[C@@H](C)C6)[nH]5)ccc4n32)s1 (single isomer, unassigned) [Compound 299] | 0.27 | 0.0017 | 0.14 |  | 
COC(=O)N[C@H](C(=O)N1CCC[C@H]1c1ncc(-c2cc(F)c3c(c2)OC(c2cc4c(s2)CCC(C)(C)O4)n2c-3cc3cc(-c4cnc([C@@H]5CCCN5C(=O)[C@@H](NC(=O)OC)C(C)C)[nH]4)ccc32)[nH]1)C(C)C (single isomer, unassigned) [Compound 398] | 0.955 |  | 0.494 | 0.0015 | 
COC(=O)NC(C(=O)N1CCC[C@H]1c1ncc(-c2ccc3c(c2)cc2n3C(c3ccc(C4CC4)s3)Oc3cc(-c4cnc([C@@H]5CCCN5C(=O)[C@@H](NC(=O)OC)C(C)C)[nH]4)cc(F)c3-2)[nH]1)C1CCOC(C)(C)C1 (single isomer, unassigned) [Compound 223] | 0.24 |  | 0.27 | 0.0025 | 
CCc1ccc(C2Oc3cc(-c4cnc([C@@H]5CCCN5C(=O)[C@@H](NC(=O)OC)C(C)C)[nH]4)cc(C)c3-c3cc4cc(-c5cnc([C@@H]6CCCN6C(=O)C(NC(=O)OC)C6C[C@@H](C)O[C@@H](C)C6)[nH]5)ccc4n32)s1 (single isomer, unassigned) [Compound 544] |  |  |  |  | IC50 (HCV replicon 1AY93H; [1]): 0.29 nM; IC50 (HCV replicon 1A; HCV replicon 1A): 0.00833 nM; IC50 (HCV replicon 2B; [2]): 0.0319 nM
COC(=O)N[C@H](C(=O)N1CCC[C@H]1c1ncc(-c2cc(F)c3c(c2)OC(c2csc4ccccc24)n2c-3cc3cc(-c4cnc([C@@H]5CCCN5C(=O)[C@@H](NC(=O)OC)C(C)C)[nH]4)ccc32)[nH]1)C(C)C (single isomer, unassigned) [Compound 323] |  | 0.0021 |  |  | IC50 (HCV replicon 1AY93H; [4]): 2.51 nM; IC50 (HCV replicon 2B; [5]): 15.8 nM
COC(=O)NC(C(=O)N1[C@@H]2C[C@@H]2C[C@H]1c1ncc(-c2ccc3c(c2)cc2n3C(c3ccc(C(F)F)s3)Oc3cc(-c4cnc([C@@H]5CCCN5C(=O)[C@@H](NC(=O)OC)C(C)C)[nH]4)cc(F)c3-2)[nH]1)C1CCOC(C)(C)C1 (single isomer, unassigned) [Compound 414] |  |  |  |  | IC50 (HCV replicon 1AY93H; [1]): 0.134 nM; IC50 (HCV replicon 1A; [6]): 0.0022 nM; IC50 (HCV replicon 2B; [2]): 0.457 nM
CCCc1ccc(C2Oc3cc(-c4cnc([C@@H]5CCCN5C(=O)[C@@H](NC(=O)OC)C(C)C)[nH]4)cc(F)c3-c3cc4cc(-c5cnc([C@@H]6CCCN6C(=O)[C@@H](NC(=O)OC)C(C)C)[nH]5)ccc4n32)s1 (single isomer, unassigned) [Compound 33] |  | 0.0018 |  |  | IC50 (HCV replicon 1AY93H; [4]): 0.28 nM; IC50 (HCV replicon 2B; [5]): 1.89 nM
